What all share (assay type): cell-based
Assay [1] deals with JJN3 plasma cell leukemia cell line. The assay is described as follows: JJN-3 assay (Alamar blue). The note with it: Homo sapiens, 72 h. Put shortly: (§1)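 For both lines, 5000 cells/well were exposed to compound or a 1% DMSO-medium control for 72 h unless otherwise specified. Signal was normalized to the DMSO control.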
Assay [2] relates to Prl-ss+10aa/Gaussia Luciferase. In words: Prl-ss-Gluc assay (constitutively active or 24 hr Dox inducible). The note with it: Flp-In 293 T-REx cells, 24 hours; read-out: Prl IC50. The method, boiled down: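 Stable Flp-In 293 T-REx lines express Prl signal sequence+10aa fused to Gaussia luciferase, either constitutively (pcDNA5/FRT) or under the T-REx promoter (pcDNA5/FRT/TO). Cells plated the day before; compounds in DMSO/media (with doxycycline for the inducible line, 24 h) incubated at 37 °C, 5% CO2.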

Assay [3] concerns FLT3ss-Gluc. In words: FLT3ss assay. The protocol: The mature domain of secreted luciferase from Gaussia princeps (GLuc) was cloned into pcDNA5/FRT/TO. The signal sequence plus four amino acids of the mature domain from FLT3 ([…]) (SEQ ID NO:7) were cloned upstream of GLuc mature domain and used in transient transfection experiment.
HEK-293T T-rex cells were cultured in Dulbecco's modified Eagle's medium with 10% FBS at 5% CO2. Cells were plated 1×10e6 cells per well in a 6-well plate and incubated for 6 h. Cells were transiently transfected with FLT3ss-Gluc using Lipofectamine 2000 (Invitrogen). After overnight incubation, transfected cells were replated in a clear-bottomed, black 96-well plate at a density of 20,000 cells per well. Six hours after plating, the cells were treated with doxycycline (1 μg/ml) and increasing concentrations of the indicated compounds for 24 h. Secreted luciferase in the conditioned media was quantified by luminescence using the BioLux Gaussia Luciferase Assay Kit (New England Biolabs, Ipswich, Mass., USA) and a SpectraMax M5 plate reader (Molecular Devices).

In assay [4] the test system is BT474 breast tumor cell line. The assay is described as follows: BT474 assay (Alamar blue). The note with it: Homo sapiens, BT-474, 72 h. The method, boiled down: as §1

Structures are written as SMILES. Read-outs that look alike come from different tables or passages of the source. Peptide text beside a SMILES is read from it.

Take `CC(C)C[C@@H]1NC(=O)[C@H](Cc2cn(Cc3ccccc3)c3ccccc23)N(C)C(=O)[C@H](CC(C)C)NC(=O)[C@H](CC(C)C)N(C)C(=O)[C@H](CC(C)C)NC(=O)[C@@H](CCC#N)OC(=O)[C@H](C)N(C)C1=O` [C-16] (HELM PEPTIDE1{L.[meA].[N#CCC[C@@H](O[*:1])C(=O)[*:2]].L.[meL].L.[CN([C@@H](Cc1cn(Cc2ccccc2)c2ccccc12)C(=O)[*:2])[*:1]]}$PEPTIDE1,PEPTIDE1,1:R1-7:R2$$$V2.0): the 50% effective concentration (EC50) in assay [1] came out at 245 nM; in assay [4], 745 nM. Moreover, the half-maximal inhibitory concentration (IC50) came out at 1820 nM in assay [2] and 32 nM in assay [3] (HEK-293T T-rex cells, transient transfection, doxycycline, 24 h; read-out: FLT3ss IC50).

Turning to `C#CC[C@H]1OC(=O)[C@H](C)N(C)C(C)[C@H](C[C@H](C)CCCC)NC(=O)[C@H](Cc2ccccc2)N(C)C(=O)[C@H](CC(C)C)NC(=O)[C@H](CC(C)C)N(C)C(=O)[C@H](C[C@H](C)CCCC)NC1=O` (some centres unmarked) [C-01], the figures for the EC50 in assay [1] and in assay [4] were 222 nM and 730 nM, respectively. Moreover, the half-inhibitory concentration (IC50) was determined as 11600 nM in assay [2] and 52 nM in assay [3] (read-out: FLT3ss IC50; HEK-293T T-rex cells, transient transfection, doxycycline, 24 h).

The record behind these values is patent publication US11339193B2, “CDP protein secretion inhibitors” (KEZAR LIFE SCIENCES, priority 2018, dated 2022).
